Source: patent publication EP2236138A1 (priority 2009, dated 2010)

Legend:
[1] = target: D3 (Homo sapiens, UniProt P35462); test: biochemical; format: binding
[2] = target: 5HT1B (Homo sapiens, UniProt P28222); test: biochemical; format: binding
[3] = target: 5HT1D (Homo sapiens, UniProt P28221); test: biochemical; format: binding
[4] = target: 5HT2B (Homo sapiens, UniProt P41595); test: pKi values of test compounds, 5HT2B (Table 1); format: binding
[5] = target: T1, Alpha2A (Homo sapiens, UniProt P08913); test: pKi values of test compounds, Alpha2A (Table 1); format: binding
T1 sequence (P08913 1-465): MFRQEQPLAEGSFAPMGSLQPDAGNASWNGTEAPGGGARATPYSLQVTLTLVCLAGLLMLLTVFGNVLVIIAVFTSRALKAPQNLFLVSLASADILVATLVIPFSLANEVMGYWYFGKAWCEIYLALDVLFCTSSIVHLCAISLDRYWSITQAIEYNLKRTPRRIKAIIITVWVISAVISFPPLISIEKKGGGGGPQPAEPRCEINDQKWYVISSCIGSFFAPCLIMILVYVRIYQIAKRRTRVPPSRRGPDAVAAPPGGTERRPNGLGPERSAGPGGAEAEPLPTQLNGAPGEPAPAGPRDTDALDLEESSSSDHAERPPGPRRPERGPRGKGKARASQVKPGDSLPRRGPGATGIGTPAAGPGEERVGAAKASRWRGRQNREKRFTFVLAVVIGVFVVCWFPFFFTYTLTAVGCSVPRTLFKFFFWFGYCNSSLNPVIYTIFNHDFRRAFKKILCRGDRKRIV

[6] = target: other 5HT receptors; test: pKi value towards other 5HT receptors; format: binding
[7] = target: other dopamine receptors; test: pKi value towards other dopamine receptors; format: binding
[8] = test system: patients with major depression; test: Semi-naturalistic open label study of combo pipamperone-citalopram in major depression; format: in vivo
Text: Design: Semi-naturalistic i.e. inclusion of every 'natural' patient in an outpatient practice but without concomitant use of mood enhancing drugs, open label
Phase: Phase Ila - preliminary Proof of Concept
Location: Belgium - Research Centre ANIMA, Alken
End Points : Assessment scale scores, Hamilton Depression Rating Scale 17 items, Reduction, Response, Remission
Medication: Exclusion of mood stabilisers, antipsychotics (typical and atypical) and other antidepressants […]
Adverse events are assessed on: body as a whole, central and peripheral nervous system, gastrointestinal, musculoskeletal, psychiatric, respiratory, skin and appendages, vascular and urinary, taking into account discontinued treatment due to adverse events. Laboratory parameters, ECG, bodyweight and vital signs are not measured since this is a naturalistic study.

[9] = target: D2 (Homo sapiens, UniProt P14416); format: binding
Sequence of D2 (P14416 whole entry): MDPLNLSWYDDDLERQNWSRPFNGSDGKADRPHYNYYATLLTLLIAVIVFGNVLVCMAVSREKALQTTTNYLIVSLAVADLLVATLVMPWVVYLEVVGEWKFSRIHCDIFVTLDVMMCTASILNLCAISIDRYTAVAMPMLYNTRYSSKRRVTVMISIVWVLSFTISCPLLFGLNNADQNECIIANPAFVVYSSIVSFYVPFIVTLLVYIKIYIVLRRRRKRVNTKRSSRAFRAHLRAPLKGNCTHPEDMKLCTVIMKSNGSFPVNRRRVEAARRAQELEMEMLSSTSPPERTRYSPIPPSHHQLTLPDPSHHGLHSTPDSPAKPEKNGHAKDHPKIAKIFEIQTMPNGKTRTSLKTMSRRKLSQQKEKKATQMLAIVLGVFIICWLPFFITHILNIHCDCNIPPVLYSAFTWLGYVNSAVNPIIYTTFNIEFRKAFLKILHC

[10] = target: T2, 5HT2C (Homo sapiens, UniProt P28335); format: binding
T2 sequence (P28335 33-458): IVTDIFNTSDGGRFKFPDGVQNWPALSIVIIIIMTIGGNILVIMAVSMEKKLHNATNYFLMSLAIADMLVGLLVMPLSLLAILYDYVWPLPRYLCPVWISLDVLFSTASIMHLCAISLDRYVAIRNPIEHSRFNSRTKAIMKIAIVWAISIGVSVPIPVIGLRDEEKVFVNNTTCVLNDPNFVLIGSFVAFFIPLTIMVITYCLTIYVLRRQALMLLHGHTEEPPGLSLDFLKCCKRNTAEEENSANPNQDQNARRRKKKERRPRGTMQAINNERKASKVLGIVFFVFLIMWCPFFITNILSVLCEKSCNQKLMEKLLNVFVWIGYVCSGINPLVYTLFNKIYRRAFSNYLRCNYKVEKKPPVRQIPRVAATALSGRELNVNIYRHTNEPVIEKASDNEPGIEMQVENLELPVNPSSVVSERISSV

[11] = target: 5HT6rat (Rattus norvegicus, UniProt P31388); test: pKi values of test compounds, 5HT6 rat (Table 1); format: binding
Sequence of 5HT6rat (P31388 whole entry): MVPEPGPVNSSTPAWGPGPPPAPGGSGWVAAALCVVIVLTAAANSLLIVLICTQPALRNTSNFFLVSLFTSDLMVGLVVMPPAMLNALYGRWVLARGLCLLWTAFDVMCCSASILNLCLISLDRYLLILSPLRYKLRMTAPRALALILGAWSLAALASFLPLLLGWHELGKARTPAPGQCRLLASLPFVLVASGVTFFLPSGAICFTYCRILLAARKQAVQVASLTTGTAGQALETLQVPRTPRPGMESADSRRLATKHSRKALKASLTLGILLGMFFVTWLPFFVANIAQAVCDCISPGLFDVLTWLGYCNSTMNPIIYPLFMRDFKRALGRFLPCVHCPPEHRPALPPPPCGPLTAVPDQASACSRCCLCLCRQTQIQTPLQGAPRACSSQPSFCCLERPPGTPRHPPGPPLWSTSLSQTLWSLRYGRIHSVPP

[12] = target: Beta1 (Homo sapiens, UniProt P08588); test: pKi values of test compounds, Beta1 (Table 1); format: binding
Sequence of Beta1 (P08588 whole entry): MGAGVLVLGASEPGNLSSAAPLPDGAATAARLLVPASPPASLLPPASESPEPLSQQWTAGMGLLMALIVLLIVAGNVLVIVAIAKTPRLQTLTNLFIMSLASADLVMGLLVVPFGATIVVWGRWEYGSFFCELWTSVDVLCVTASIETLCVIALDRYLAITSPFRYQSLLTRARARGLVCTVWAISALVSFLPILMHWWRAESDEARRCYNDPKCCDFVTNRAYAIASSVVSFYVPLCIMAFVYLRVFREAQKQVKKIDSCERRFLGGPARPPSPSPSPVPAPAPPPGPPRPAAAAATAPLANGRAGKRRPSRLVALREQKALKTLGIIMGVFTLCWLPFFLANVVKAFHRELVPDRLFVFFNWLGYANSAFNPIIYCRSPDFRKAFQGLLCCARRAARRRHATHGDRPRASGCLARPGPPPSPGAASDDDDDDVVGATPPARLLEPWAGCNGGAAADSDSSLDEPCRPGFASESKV

[13] = target: Beta2 (Homo sapiens, UniProt P07550); test: pKi values of test compounds, Beta2 (Table 1); format: binding
Sequence of Beta2 (P07550 whole entry): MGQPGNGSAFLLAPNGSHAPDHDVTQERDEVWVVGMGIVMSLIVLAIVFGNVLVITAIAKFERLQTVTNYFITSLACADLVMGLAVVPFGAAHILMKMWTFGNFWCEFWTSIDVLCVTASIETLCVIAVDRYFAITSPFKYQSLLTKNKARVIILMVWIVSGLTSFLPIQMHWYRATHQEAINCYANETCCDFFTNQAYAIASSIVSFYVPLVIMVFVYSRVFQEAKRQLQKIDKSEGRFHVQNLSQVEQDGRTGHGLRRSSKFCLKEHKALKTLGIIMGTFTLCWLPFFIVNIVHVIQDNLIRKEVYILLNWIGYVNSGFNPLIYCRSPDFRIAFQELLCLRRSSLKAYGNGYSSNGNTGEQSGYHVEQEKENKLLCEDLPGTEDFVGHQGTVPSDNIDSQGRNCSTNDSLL

[14] = target: D1 (Homo sapiens, UniProt P21728); format: binding
Sequence of D1 (P21728 whole entry): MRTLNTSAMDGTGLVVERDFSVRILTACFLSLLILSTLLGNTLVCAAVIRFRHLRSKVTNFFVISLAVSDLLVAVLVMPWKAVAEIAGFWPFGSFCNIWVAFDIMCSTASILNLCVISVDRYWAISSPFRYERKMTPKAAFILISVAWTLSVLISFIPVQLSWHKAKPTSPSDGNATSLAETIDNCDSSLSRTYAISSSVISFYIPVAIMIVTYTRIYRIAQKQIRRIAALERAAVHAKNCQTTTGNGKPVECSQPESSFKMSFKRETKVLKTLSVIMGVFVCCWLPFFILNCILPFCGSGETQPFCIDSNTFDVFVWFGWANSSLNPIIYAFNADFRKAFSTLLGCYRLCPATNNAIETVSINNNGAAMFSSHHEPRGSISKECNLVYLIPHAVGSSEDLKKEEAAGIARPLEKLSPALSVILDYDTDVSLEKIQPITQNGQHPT

[15] = target: T3, 5HT1A (Homo sapiens, UniProt P08908); format: binding
T3 sequence (P08908 1-422): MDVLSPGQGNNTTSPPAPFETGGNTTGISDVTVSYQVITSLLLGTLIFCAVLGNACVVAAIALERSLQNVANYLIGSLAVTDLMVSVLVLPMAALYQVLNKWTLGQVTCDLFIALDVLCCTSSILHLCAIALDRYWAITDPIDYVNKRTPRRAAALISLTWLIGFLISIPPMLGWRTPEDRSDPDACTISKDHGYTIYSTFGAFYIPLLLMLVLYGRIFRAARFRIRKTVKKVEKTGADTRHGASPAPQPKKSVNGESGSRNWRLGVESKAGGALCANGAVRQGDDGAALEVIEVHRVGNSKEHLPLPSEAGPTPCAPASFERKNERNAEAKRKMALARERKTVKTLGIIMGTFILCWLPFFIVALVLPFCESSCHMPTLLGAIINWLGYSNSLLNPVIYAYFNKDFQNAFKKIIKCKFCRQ

[16] = target: T4, Alpha1A (Homo sapiens, UniProt P35348); format: binding
T4 sequence (P35348 1-466): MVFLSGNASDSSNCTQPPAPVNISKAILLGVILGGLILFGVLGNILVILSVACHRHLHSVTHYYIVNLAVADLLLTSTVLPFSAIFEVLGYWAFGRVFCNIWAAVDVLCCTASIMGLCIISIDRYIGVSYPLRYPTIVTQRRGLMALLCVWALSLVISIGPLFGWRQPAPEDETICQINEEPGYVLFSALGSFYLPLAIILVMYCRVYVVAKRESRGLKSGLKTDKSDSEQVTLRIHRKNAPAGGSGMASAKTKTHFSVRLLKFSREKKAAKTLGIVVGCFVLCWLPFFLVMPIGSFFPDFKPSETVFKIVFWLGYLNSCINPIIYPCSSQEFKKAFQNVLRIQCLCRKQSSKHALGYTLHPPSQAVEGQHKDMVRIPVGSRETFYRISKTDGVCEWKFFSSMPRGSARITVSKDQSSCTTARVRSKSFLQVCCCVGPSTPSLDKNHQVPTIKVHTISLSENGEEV

Sequence of 5HT2B (P41595 whole entry): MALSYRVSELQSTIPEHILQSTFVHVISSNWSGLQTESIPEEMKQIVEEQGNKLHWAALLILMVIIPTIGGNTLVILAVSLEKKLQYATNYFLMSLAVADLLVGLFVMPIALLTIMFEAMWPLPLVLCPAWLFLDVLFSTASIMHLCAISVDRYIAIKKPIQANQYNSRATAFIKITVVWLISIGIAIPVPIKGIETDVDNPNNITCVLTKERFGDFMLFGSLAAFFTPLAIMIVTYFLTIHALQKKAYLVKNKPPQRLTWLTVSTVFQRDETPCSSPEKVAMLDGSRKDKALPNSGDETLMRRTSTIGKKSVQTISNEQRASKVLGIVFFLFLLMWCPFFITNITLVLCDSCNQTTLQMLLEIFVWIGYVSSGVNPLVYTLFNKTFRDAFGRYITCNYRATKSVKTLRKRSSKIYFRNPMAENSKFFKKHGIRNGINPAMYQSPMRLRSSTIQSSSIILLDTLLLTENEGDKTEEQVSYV
Sequence of 5HT1D (P28221 whole entry): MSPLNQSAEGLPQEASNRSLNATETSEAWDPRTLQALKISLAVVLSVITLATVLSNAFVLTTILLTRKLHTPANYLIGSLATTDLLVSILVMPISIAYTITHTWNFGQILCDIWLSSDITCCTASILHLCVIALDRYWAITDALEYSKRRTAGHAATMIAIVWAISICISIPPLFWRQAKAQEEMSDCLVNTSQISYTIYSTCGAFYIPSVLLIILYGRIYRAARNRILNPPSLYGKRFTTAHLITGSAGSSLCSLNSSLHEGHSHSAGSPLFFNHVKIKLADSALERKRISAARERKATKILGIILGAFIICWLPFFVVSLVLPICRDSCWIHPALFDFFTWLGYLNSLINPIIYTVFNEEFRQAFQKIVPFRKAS
Sequence of 5HT1B (P28222 whole entry): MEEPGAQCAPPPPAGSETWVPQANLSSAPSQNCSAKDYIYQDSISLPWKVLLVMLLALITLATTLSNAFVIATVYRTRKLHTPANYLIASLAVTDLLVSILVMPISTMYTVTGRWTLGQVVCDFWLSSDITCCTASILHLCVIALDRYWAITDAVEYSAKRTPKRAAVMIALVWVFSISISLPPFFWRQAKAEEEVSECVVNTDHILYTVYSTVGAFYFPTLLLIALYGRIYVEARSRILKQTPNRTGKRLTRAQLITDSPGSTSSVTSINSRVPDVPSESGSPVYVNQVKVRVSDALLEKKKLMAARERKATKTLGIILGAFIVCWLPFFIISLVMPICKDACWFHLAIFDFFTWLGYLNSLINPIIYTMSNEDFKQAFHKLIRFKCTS
Sequence of D3 (P35462 whole entry): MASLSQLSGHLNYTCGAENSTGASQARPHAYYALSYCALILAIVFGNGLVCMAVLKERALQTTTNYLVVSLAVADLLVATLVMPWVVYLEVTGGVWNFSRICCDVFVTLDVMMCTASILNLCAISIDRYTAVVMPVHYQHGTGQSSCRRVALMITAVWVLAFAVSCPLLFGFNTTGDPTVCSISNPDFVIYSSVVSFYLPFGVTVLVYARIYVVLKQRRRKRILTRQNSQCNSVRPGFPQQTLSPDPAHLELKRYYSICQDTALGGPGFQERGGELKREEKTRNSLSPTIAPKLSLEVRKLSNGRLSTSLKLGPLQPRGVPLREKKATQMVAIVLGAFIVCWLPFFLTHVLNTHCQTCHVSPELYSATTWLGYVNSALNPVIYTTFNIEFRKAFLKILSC

OC1(c2ccc(Cl)cc2)CCN(Cc2c[nH]c3ccccc23)CC1 [L741626]
Ki [1]: 10 to 100 nM
Ki ([2]; read-out: pKi 5HT1B (converted)): > 1000 nM
Ki [3]: > 1000 nM
Ki [4]: 100 to 1000 nM
Ki [5]: > 1000 nM

NC(=O)C1(N2CCCCC2)CCN(CCCC(=O)c2ccc(F)cc2)CC1 [Pipamperon, 1'-[3-(p-Fluorobenzoyl)propyl]-[1,4'-bipiperidine]-4'-carboxamide]
pKi value towards other 5HT receptors [6]: less than 8
pKi value towards other dopamine receptors [7]: less than 8
Sedative effects of pipamperone ([8]; major depression study, pipamperone 2-4 mg/day): lacking
boosting effect of pipamperone on a SSRI, in this case citalopram ([8]; major depression, pipamperone 2-4 mg/day + citalopram 20-40 mg/day PO, 8 weeks): apparent

O=C(C[C@H]1CCN(CCOc2cccc3c2OCCO3)C1)c1ccc(F)cc1 [S16924]
pKi D2 [9]: 7-8
pKi D3 [1]: 7-8
pKi 5HT2C [10]: <6
pKi 5HT6rat [11]: 6-7
pKi Beta1 [12]: <6
pKi Beta2 [13]: <6

N#Cc1ccc2c(c1)[C@H]1CN(CCCCNC(=O)c3ccc(-c4ccccc4)cc3)C[C@@H]1CO2 [S33084]
pKi D1 [14]: 6-7
pKi D2 [9]: 7-8
pKi 5HT1A [15]: <6
pKi 5HT1B [2]: 6-7
pKi 5HT1D [3]: 6-7
pKi 5HT2B [4]: 6-7
pKi 5HT2C [10]: 7-8
pKi Alpha1A [16]: 6-7
pKi Alpha2A [5]: <6
